Laboratory results from ChEMBL document CHEMBL5360529, “Pyrimidine derivatives with antitubercular activity” (Eur J Med Chem, 2023).
In brackets after ≈: the same amount, converted by molar mass.

How the values were obtained:
[1] = system: Mycobacterium tuberculosis; assay: Antimycobacterial activity against Mycobacterium tuberculosis H37Rv infected in po dosed C57BL/6 mouse assessed as bacterial growth inhibition measured after 8 days; type: functional; conditions: 192 h, time 8 day
[2] = target: T1, Thymidylate kinase (Mycobacterium tuberculosis, UniProt P9WKE1); assay: Inhibition of Mycobacterium tuberculosis TMPK assessed as inhibition constant
T1 sequence (P9WKE1 whole entry): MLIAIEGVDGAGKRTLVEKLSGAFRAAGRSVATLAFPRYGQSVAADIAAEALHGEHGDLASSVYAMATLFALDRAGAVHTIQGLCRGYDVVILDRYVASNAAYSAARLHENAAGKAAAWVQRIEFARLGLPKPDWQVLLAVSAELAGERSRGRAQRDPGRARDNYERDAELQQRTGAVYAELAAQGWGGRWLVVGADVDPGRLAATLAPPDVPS

[3] = system: Mycobacterium tuberculosis; assay: Antimycobacterial activity against Mycobacterium tuberculosis My331/88 assessed as bacterial growth inhibition measured after 14 to 21 day; type: functional; conditions: time 14-21 day
[4] = target: Adenosine kinase (Homo sapiens, UniProt P55263); assay: Inhibition of human ADK
Adenosine kinase (Homo sapiens, UniProt P55263), sequence (P55263 whole entry): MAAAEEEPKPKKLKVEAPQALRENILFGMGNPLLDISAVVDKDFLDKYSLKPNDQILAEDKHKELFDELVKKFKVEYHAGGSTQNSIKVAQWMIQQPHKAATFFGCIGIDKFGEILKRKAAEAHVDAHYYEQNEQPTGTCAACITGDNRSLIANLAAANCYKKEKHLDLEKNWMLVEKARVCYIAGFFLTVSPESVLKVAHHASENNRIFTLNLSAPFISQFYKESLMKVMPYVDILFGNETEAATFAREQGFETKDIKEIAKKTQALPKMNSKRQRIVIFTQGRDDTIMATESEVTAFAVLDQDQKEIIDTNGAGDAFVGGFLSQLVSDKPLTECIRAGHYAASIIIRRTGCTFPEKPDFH

[5] = target: Adenosine kinase (Mycobacterium tuberculosis (strain CDC 1551 / Oshkosh), UniProt P9WID4); assay: Inhibition of Mycobacterium tuberculosis ADK
Adenosine kinase (Mycobacterium tuberculosis (strain CDC 1551 / Oshkosh), UniProt P9WID4), sequence (P9WID4 whole entry): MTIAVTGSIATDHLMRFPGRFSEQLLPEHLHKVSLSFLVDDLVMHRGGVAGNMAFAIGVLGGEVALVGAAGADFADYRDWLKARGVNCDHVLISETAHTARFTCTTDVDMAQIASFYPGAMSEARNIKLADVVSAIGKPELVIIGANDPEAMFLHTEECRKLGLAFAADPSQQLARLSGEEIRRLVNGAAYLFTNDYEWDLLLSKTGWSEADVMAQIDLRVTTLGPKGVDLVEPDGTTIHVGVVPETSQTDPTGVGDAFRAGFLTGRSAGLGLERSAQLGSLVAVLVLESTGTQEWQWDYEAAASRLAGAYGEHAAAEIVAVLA

[6] = system: Mycobacterium tuberculosis; assay: Antimycobacterial activity against Mycobacterium tuberculosis H37RV assessed as bacterial growth inhibition; type: functional
[7] = system: Mycobacterium tuberculosis; assay: Antimycobacterial activity against Mycobacterium tuberculosis H37Rv assessed as bacterial growth inhibition by microplate Alamar blue assay; type: functional
[8] = Selectivity index, ratio of Ki for human TMPK to Ki for Mycobacterium tuberculosis TMPK
[9] = system: Mycobacterium tuberculosis; assay: Antimycobacterial activity against Mycobacterium tuberculosis assessed as bacterial growth inhibition measured after 14 to 21 day; type: functional; conditions: time 14-21 day
[10] = system: Mycobacterium tuberculosis; assay: Antimycobacterial activity against Mycobacterium tuberculosis infected in Macrophage cell (unknown origin) assessed as bacterial growth inhibition; type: functional
[11] = system: HepG2; assay: Anticancer activity against human HepG2 cells assessed as cell growth inhibition; type: functional, cell-based
[12] = Selectivity index, ratio of IC50 for anticancer activity against human HepG2 cells to MIC for antimycobacterial activity against Mycobacterium tuberculosis; type: toxicity, cell-based; conditions: read-out: Selectivity Index
[13] = target: T2, Thymidylate kinase (Homo sapiens, UniProt P23919); assay: Inhibition of human TMPK assessed as inhibition constant
T2 sequence (P23919 whole entry): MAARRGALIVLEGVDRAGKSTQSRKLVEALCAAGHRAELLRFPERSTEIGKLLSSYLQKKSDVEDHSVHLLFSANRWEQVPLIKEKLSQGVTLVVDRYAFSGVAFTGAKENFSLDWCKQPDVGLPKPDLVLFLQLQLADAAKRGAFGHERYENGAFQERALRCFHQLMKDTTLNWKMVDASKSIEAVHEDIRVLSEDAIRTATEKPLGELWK

## COc1c(N2C[C@@H]3CCCN[C@@H]3C2)c(F)cc2c(=O)c(C(=O)O)cn(C3CC3)c12 [MOXIFLOXACIN]
[1]
  ED99: 27.7 mg/kg

## Cc1cn([C@H]2C[C@H](NC(=O)N[C@H]3C[C@H](c4[nH]c(=O)[nH]c(=O)c4C)O[C@@H]3O)[C@@H](CO)O2)c(=O)[nH]c1=O
[2]
  Ki: 37 µM

## OC[C@H]1O[C@@H](n2ccc3c(-c4cc5ccccc5o4)nc(F)nc32)[C@H](O)[C@@H]1O
[3]
  MIC: 62.5 µM (≈ 24.1 µg/mL)
[4]
  IC50: > 10 µM
[5]
  IC50: 1.2 µM

## Cc1nn2c(=O)cc(-c3ccccc3)[nH]c2c1-c1ccccc1
[6]
  MIC: 3.12 µM

## COc1ccc(Cn2cnc3c(-c4ccco4)nc(Cl)nc32)cc1
[6]
  MIC: 0.78 µg/mL

## O=C(C1CCN(c2cc(N3CCOCC3)ncn2)CC1)N1CCC(Oc2ccc(F)cc2)CC1
[1]
  ED99: 30 mg/kg

## CCCSc1nc(Cl)c(C#N)c(-c2cccc(F)c2)n1
[7]
  MIC: 0.78 µg/mL

## Cc1cn([C@@H]2O[C@H](CO)[C@H]3CNC(=S)O[C@H]32)c(=O)[nH]c1=O
[8]
  Ratio Ki: 200

## CCCSc1nc(Cl)c(C#N)c(-c2ccco2)n1
[7]
  MIC: 0.78 µg/mL

## COc1ccc(CNc2nc(Cl)nc(-c3ccco3)c2NC=O)cc1
[6]
  IC90: 0.29 µg/mL (≈ 0.808 µM)

## O=c1nc(N2CCN(CC3CCCCC3)CC2)sc2c([N+](=O)[O-])cc(C(F)(F)F)cc12 [MACOZINONE]
[6]
  MIC: ≤ 0.00019 µg/mL

## COc1ccc(CNc2nc(F)nc(-c3ccco3)c2NC=O)cc1
[6]
  IC90: < 0.2 µg/mL

## OC[C@H]1O[C@@H](n2ccc3c(-c4cccc5c4oc4ccccc45)nc(F)nc32)[C@H](O)[C@@H]1O
[9]
  MIC: 32 µM (≈ 13.9 µg/mL)
[3]
  MIC: 32 µM (≈ 13.9 µg/mL)
[4]
  IC50: > 20 µM
[5]
  IC50: 0.18 µM

## COc1ccc(CNc2nc(C)nc(-c3ccco3)c2NC=O)cc1
[6]
  IC90: 0.33 µg/mL (≈ 0.975 µM)

## O=C(C1CCN(c2cc(N3CCOCC3)ncn2)CC1)N1CCC(Cc2ccc(F)cc2)CC1
[1]
  ED99: 29 mg/kg

## CC(=O)NC[C@H]1CN(c2ccc(N3CCOCC3)c(F)c2)C(=O)O1 [LINEZOLID]
[1]
  ED99: 28 mg/kg

## NCC[C@H](O)C(=O)N[C@@H]1C[C@H](N)[C@@H](O[C@H]2O[C@H](CN)[C@@H](O)[C@H](O)[C@H]2O)[C@H](O)[C@H]1O[C@H]1O[C@H](CO)[C@@H](O)[C@H](N)[C@H]1O [AMIKACIN]
[6]
  MIC: 2 µg/mL

## O=c1cc(CC2CCCCC2)[nH]c2c(-c3ccc(Cl)cc3)cnn12
[6]
  MIC: 0.78 µM

## N#Cc1c(Cl)nc(SCc2ccc(Cl)cc2)nc1-c1cccs1
[7]
  MIC: 0.78 µg/mL

## COc1ccc(-c2cc(=O)n3nc(C)c(-c4ccc(Cl)cc4)c3[nH]2)cc1
[6]
  MIC: 3.12 µM

## Cc1nn2c(=O)cc(-c3ccc(F)c(F)c3)[nH]c2c1-c1ccccc1
[6]
  MIC: 1.56 µM
[10]
  MIC: 2.73 µM (≈ 0.921 µg/mL)
[11]
  IC50: > 100 µM
[12]
  selectivity ratio: > 36

## CCCSc1nc(Cl)c(C#N)c(-c2cccs2)n1
[7]
  MIC: 0.78 µg/mL

## O=c1cc(-c2ccc(Cl)cc2)[nH]c2c(-c3ccc(Cl)cc3)cnn12
[6]
  MIC: 12.5 µM

## Cc1cn([C@H]2C[C@H](O)[C@@H](CNC(=S)Nc3ccc(Cl)c(C(F)(F)F)c3)O2)c(=O)[nH]c1=O
[8]
  Ratio Ki: 600
[2]
  Ki: 0.6 µM
[13]
  Ki: 362 µM
